Data published in patent publication US20240309015A1, “Methods for the Treatment of Fibrotic Disease” (SHY Therapeutics, LLC, priority 2021, published 2024).

Tests used:
KRas wild type = assay: Ras GTP Binding Domain Inhibition Assay, KRas wild type; settings: at 20 μM; for KRas wild type + SOS: % inh.: with SOS; for KRas wild type: % inh.: without SOS
Summary of the method: (§1)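 His-tagged GTPases, 10-30 μg/mL in Tris-HCl buffer (pH 7.4 or 7.0, MgCl2, DTT), were immobilised on nickel-coated wells overnight at 4° C. Compounds were added at 20 μM or as serial dilutions for IC50 in 1% DMSO for 3 h at room temperature, ±Sos(556-1049) in the final hour. Bound Cy3/Cy5-GTP (100 nM, 45 min) was read after washing.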

Smad2 phosphorylation = assay: Phospho-Smad2 western blot of D2-mdx mouse tissues; type: in vivo; settings: 100 mg/kg IP daily for 3 days
Excerpt: (§2) The experiment described herein was designed to monitor the effects of Compound 9 on two biomarkers related to fibrosis in D2-mdx mice. The first biomarker is Smad2 phosphorylation, and the second is the levels of serum albumin in the different muscle tissues. Fibrosis causes disruption of the fine transparent tubular sheath which envelops the fibers of skeletal muscles, this can result in various molecules from the blood and interstitial fluid leaking into myofibres. A classic example is serum albumin, which can be identified in tissue sections and considered to be hallmark of myofibre permeability.
(§3) Experimental Design: Compound 9 was suspended in 0.5% Hydroxypropyl Methylcellulose (HPMC)/0.1% Tween® 80 to a final concentration of 10 mg/mL. […]
(§4) Tissue protein extraction: Frozen tissues were placed on ice in prechilled tubes with 30 μL/mg with of ice-cold RIPA buffer+Halt™ Protease & Phosphatase Inhibitor Cocktail. […] Supernatant was removed and protein concentration determined by BCA assay.
(§5) Western blot protocol: Equal amounts of protein (15-50 μg) were separated by SDS-PAGE and transferred to nitrocellulose membranes (Invitrogen by Thermo Fisher Scientific). […] Membranes were blocked with 10% milk and albumin levels were assessed by incubating overnight at 4° C. with albumin antibody (Cell Signaling Technology #4929). […]

[1] = Observation for overt toxicity in D2-mdx mice; type: in vivo; settings: male D2-mdx mice, 100 mg/kg IP daily for 3 days
Description: Experimental Design: Compound 9 was suspended in 0.5% Hydroxypropyl Methylcellulose (HPMC)/0.1% Tween® 80 to a final concentration of 10 mg/mL. The dosing solutions were prepared prior to the start of the test and were stored in the dark and maintained in frozen aliquots. Doses were thawed prior to administration. Male D2-mdx (JAX Stock No: 013141) mice were sourced from The Jackson Laboratory and housed in solid bottom cages with standard chow and water ad libitum. Dosing was initiated when animals were −3 weeks old. Animals were dosed daily by intraperitoneal (IP) injection at 100 mg/kg or vehicle for 3 days. […] Mice were sacrificed by CO2 euthanasia approximately 6 hours after their day 3 dosing. Heart, diaphragm, quadriceps, tibialis anterior (TA) samples were collected at termination on day 3 and snap frozen. These samples were shipped on dry ice for analysis, and were stored at −80° C.

KRas G12D mutant = assay: Ras GTP Binding Domain Inhibition Assay, KRas G12D mutant; settings: at 20 μM; for KRas G12D mutant + SOS: % inh.: with SOS; for KRas G12D mutant: % inh.: without SOS
Summary of the method: as §1

[2] = Observation for overt toxicity in DBA/2J mice; type: in vivo; settings: male DBA/2J mice, single dose, 100 mg/kg IP
Description: Experimental Design: Compound 9 was suspended in 0.5% Hydroxypropyl Methylcellulose (HPMC)/0.1% Tween® 80 to a final concentration of 10 mg/mL. The dosing solutions were prepared prior to the start of the test. Male DBA/2J mice (Jackson Stock No: 000671) were housed in solid bottom cages with standard chow and water ad libitum. Dosing was initiated when animals were 7-8 weeks old. Mice were dosed at a volume of 10 mL/kg by intraperitoneal (IP) injection at 100 mg/kg or vehicle. […] Blood was collected at 15 min, 30 min, 1 h, 2 h, 4 h, 7 h, 16 h, 24 h by cardiac puncture, mixed gently 8 times and put on ice until centrifuged within 30 minutes of collection. The plasma was transferred to a 96-well plate for analysis of test compound levels.

[3] = Assessment of plasma exposure in DBA/2J mice; type: in vivo, mouse; settings: Group 4: 100 mg/kg PO, Vehicle 2 (Solubilized Lipid)
serum albumin = assay: Albumin western blot of D2-mdx mouse tissues; type: in vivo; settings: D2-mdx mice, 100 mg/kg IP daily for 3 days
Excerpt: as §2, §3, §4, §5

KRas G12C mutant = assay: Ras GTP Binding Domain Inhibition Assay, KRas G12C mutant; settings: at 20 μM; for KRas G12C mutant + SOS: % inh.: with SOS; for KRas G12C mutant: % inh.: without SOS
Summary of the method: as §1

Rho-A = assay: Ras GTP Binding Domain Inhibition Assay, Rho-A; settings: at 20 μM; for Rho-A: % inh.: without SOS
Summary of the method: as §1

TNFα = assay: Mouse TNF Alpha Quantification Assay (LPS-stimulated RAW 264.7); type: cell-based; set-up: dose or concentration left out as unconfirmed; settings: RAW264.7, ELISA, read-out: TNFα: % inh.
IL-6 = assay: Mouse IL6 Quantification Assay (LPS-stimulated RAW 264.7); type: cell-based; set-up: dose or concentration left out as unconfirmed; settings: RAW264.7, ELISA, read-out: IL-6: % inh.
Smad2/3 phosphorylation = assay: Phospho-Smad2/3 Inhibition Assay in PANC-1; type: cell-based; settings: Homo sapiens; 10 μM compound, 3 h; TGF-b1 stimulated PANC-1; western blot; read-out: % inh of Smad2/3 phosphorylation in PANC-1
Summary of the method: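 Serum-starved cells (0.5% FBS overnight) pretreated 3 h at 37 °C with compound at 10 μM or serial dilutions for IC50, in 0.3% DMSO. TGF-b1 10 ng/ml stimulation: 1 h for Panc-1 (human), 20 min for C2C12 (mouse). Phospho-Smad2 (Ser465/467) and phospho-Smad3 (Ser423/425) measured by western blot of lysates.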

Structure (SMILES) | KRas wild type + SOS: % inh. (KRas wild type) | KRas wild type: % inh. (KRas wild type) | Smad2 phosphorylation in the diaphragm compared to control vehicle mice (Smad2 phosphorylation) | Smad2 phosphorylation in the heart (Smad2 phosphorylation; D2-mdx mice) | findings of overt toxicity [1] | KRas G12D mutant + SOS: % inh. (KRas G12D mutant; Table 7) | KRas G12D mutant + SOS: % inh. (KRas G12D mutant; Table 8) | KRas G12D mutant: % inh. (KRas G12D mutant; Table 7) | KRas G12D mutant: % inh. (KRas G12D mutant; Table 8) | findings of overt toxicity [2] | Tmax [3] [h] | serum albumin levels in the heart (serum albumin) | serum albumin levels in the tibialis anterior and quadricep muscles (serum albumin) | KRas G12C mutant + SOS: % inh. (KRas G12C mutant) | KRas G12C mutant: % inh. (KRas G12C mutant) | Rho-A + SOS: % inh. (Rho-A; with SOS) | Rho-A: % inh. (Rho-A) | inhibition (TNFα) [%] | inhibition (IL-6) [%] | inhibition at 10 µM (Smad2/3 phosphorylation) [%]
COCCNc1nc(-c2nccn2C)nc2sc(-c3cccc(OC)c3Cl)c(-c3ccccc3)c12 [Compound 9, 6-(2-Chloro-3-methoxyphenyl)-N-(2-methoxyethyl)-2-(1-methyl-1H-imidazol-2-yl)-5-phenylthieno[2,3-d]pyrimidin-4-amine] | D (D = 76-100% inhibition) | C (C = 46-75% inhibition) | inhibition of Smad2 phosphorylation | No changes | No findings of overt toxicity were observed | C (C = 46-75% inhibition) | C (C = 46-75% inhibition) | C (C = 46-75% inhibition) | C (C = 46-75% inhibition) | No findings of overt toxicity were observed | 4 | No changes | clear decrease | D (D = 76-100% inhibition) | B (B = 26-45% inhibition) | B (B = 26-45% inhibition) | B (B = 26-45% inhibition) | – | – | –
Cc1c(-c2ccn(C(C)C)n2)sc2nc(-c3nccn3C)nc(NCCN3CCS(=O)(=O)CC3)c12 [Compound 23, 4-(2-((6-(1-Isopropyl-1H-pyrazol-3-yl)-5-methyl-2-(1-methyl-1H-imidazol-2-yl)thieno[2,3-d]pyrimidin-4-yl)amino)ethyl)thiomorpholine 1,1-dioxide] | D (D = 76-100% inhibition) | D (D = 76-100% inhibition) | – | – | – | D (D = 76-100% inhibition) | D (D = 76-100% inhibition) | D (D = 76-100% inhibition) | D (D = 76-100% inhibition) | – | – | – | – | D (D = 76-100% inhibition) | C (C = 46-75% inhibition) | – | C (C = 46-75% inhibition) | 0 | 46 to 75 | 0
